Assays:
[1] = tested on: CT26 colon adenocarcinoma; test: Growth inhibition of footpad CT26 colon adenocarcinoma in CB6F1 mice, second series (FIGS. 2 and 3); type: in vivo, mouse; conditions: for Inhibition of tumor growth, schedule ending before inoculation: 12 consecutive days, ending one day before tumor inoculation; for Anticancer activities against established footpad CT26 colon adenocarcinoma: CB6F1 mice, in words; for Deaths before stated day after tumor inoculation: FIG. 2 experiment, palpable CT26 tumors, 10 animals per group; for Inhibition of growth of palpable CT26 tumors (in words): daily i.p. in 2.2 ml saline, pH 6.2, 12 days, starting after tumors palpable, equimolar amounts
Method: A further series of tests are conducted whereby tumors are inoculated by injections of 2.5×10^5 CT26 cells (over 90% viability) in 50 μl of phosphate-buffered saline into the right hind footpad of CB6F1 mice. The treatments were initiated at a variety of times after inoculation of the tumors. The injection schedules started either 1 or 5 days after tumor inoculation when none of the tumors are palpable or when the tumors are clearly palpable (average calculated weight of 100 mg), which occur in 100% of the inoculated mice after 8-11 days. Mice are randomized, divided into groups, and injected daily with 2.2 ml of saline, adenosine, AMP, or ATP (compounds are in sterile saline solutions at concentrations of 25 mM with AMP and ATP solutions adjusted to pH 6.2). Injections are administered intraperitoneally with 30 gauge needles and the mice are lightly anesthetized with […]. The mice are weighed and tumor sizes measured before the start of the treatment schedule and every three days during and after the treatment schedule. These determinations are performed before injections during the treatment period.
In particular, see FIG. 2. FIG. 2 illustrates inhibition of tumor growth (---) and host weight loss (-) in tumor-bearing mice by treatment with adenine nucleotides. Mice (CB6F1, 8 week old males) bearing palpable CT26 footpad tumors (on day 9 after tumor inoculation) are treated with saline (.smallcircle.), adenosine (o), AMP (Δ), or ATP (.quadrature.) as described herein. An untreated group is also included (x). Arrows indicate days of injection.
The magnitude of the antitumor activities of AMP and ATP depends to a small extent on the pH of the solution administered intraperitoneally. This property is probably related to the number of negative charges on the phosphate groups (the pKa of the secondary phosphate is around 6.6). AMP and especially ATP have some buffering capacity, and at a pH below 6.6 they carry a smaller net charge than at a physiological pH. The lower charge of these molecules enhances the initial (first hour) transport of AMP and ATP across the peritoneal membrane and into the systemic circulation (see Torres, et al., 1978, Pharmacol., 17, 330-340). […] The treatment schedule of palpable CT26 tumors which is illustrated in FIG. 2 consistently yields 10-20% of "cures". These mice remain tumor-free for at least two months.
FIG. 3 further illustrates inhibition of host weight loss in tumor-bearing animals by treatment with adenine nucleotides. Mice (CB6F1, males, 7 weeks old, in A, 10 weeks old in B, […]) with saline (.smallcircle.), adenosine (o), AMP (Δ), or ATP (.quadrature.) are initiated 1 day (A), 5 days (B), or 9 days after tumor inoculation (when all the tumors were palpable) (C). Arrows indicate days of injection. Experimental procedures were outlined in the text.

RBC ATP pools = RBC ATP pools after in vitro incubation of whole mouse blood with 1 mM compound (Table 6); type: cell-based; conditions: for RBC ATP pools (after 30 min incubations in heparinized mouse blood): 1 mM compound, bioluminometry
Method: ^+ RBC ATP pools were determined in isolated washed RBCs after
incubations of whole blood with 1 mM of the specified compound by
bioluminometry. Data represent means ± S.D. of three separate

CT26 tumors [2] = test: Arrest of growth of CT26 tumors in CB6F1 mice (Table 2); type: in vivo, mouse; conditions: experiment 1; CB6F1, 10 F; 0.5 × 10^4 cells; 5 weeks; 1 ml of 50 mM i.p.
Method: (§1) The tumor cell lines employed were CT26, a mouse undifferentiated, aggressive colon carcinoma, and CAPAN-1, a well-differentiated human pancreatic adenocarcinoma. […] The cells are shown to be free of Mycoplasma contamination. Cells are cultured at 37° C. in a humidified atmosphere of 5% CO2 /95% air in MEM supplemented with antibiotics (100 units of penicillin per ml and 100 μg streptomycin per ml), L-glutamine (2 mM), non-essential amino acids (0.1 mM), sodium pyruvate (1 mM), and 10% fetal bovine serum.
In the tests, females and males CB6F1 mice (a standard F1 hybrid of BALB/C and C57BL/6) obtained from Jackson Laboratories, Bar Harbor, Maine and athymic outbred NCr nu/nu mice (males and females) from the Department of Radiation Medicine, Massachusetts General Hospital, Boston, Mass. 02114 are used. All the mice are kept for at least two weeks before inoculation of the tumors and the start of treatment and are 7-9 weeks old (CB6F1) or 6-7 weeks old (athymic nu/nu) at the start of the procedure. Animals weigh 20-25 g (females) or 23-28 g (males), are housed 5-12 per cage, and have ad libitum access to food and water. […]
Injections are administered with 30 gauge needles and the mice are lightly anesthetized with ether. […] After the tumors become palpable, tumor sizes are determined every three days. […]

CT26 tumors [3] = test: Growth inhibition of s.c. footpad CT26 tumors in CB6F1 mice by daily i.p. adenine nucleotides (Table 1); type: in vivo, mouse; conditions: for Effectiveness of concentrations lower than 50 mM against CT26 footpad tumors: daily i.p. in volumes of 1.4-1.8 ml of saline, CB6F1 mice; for Effect of delaying start of treatment on tumor growth inhibition: start delayed until tumors palpable (6-10 days after inoculation); for Inhibition of tumor growth (% of saline-treated): 1 ml of 25 mM, based on tumor weights
Method: as §1
In the tests, females and males CB6F1 mice (a standard F1 hybrid of BALB/C and C57BL/6) obtained from Jackson Laboratories, Bar Harbor, Maine and athymic outbred NCr nu/nu mice (males and females) from the Department of Radiation Medicine, Massachusetts General Hospital, Boston, Mass. 02114 are used. All the mice are kept for at least two weeks before inoculation of the tumors and the start of treatment and are 7-9 weeks old (CB6F1) or 6-7 weeks old (athymic nu/nu) at the start of the procedure. Animals weigh 20-25 g (females) or 23-28 g (males), are housed 5-12 per cage, and have ad libitum access to food and water.
Tumor cells are removed from subconfluent cultures by a mild trypsin-EDTA treatment, the cell pellet is washed once with MEM without serum and the cells are suspended at the desired cell numbers in PBS (phosphate-bufferedsaline, 8 g NaCl, 0.2 g KCl, 1.15 g Na2 HPO4.7H2 O, and 0.2 g KH2 PO4 per liter). Cell suspensions are shown to be at least 90% viable by trypan blue exclusion. Mice are injected subcutaneously in the right hind footpad with tumor cells suspended in 50 μl of PBS. The regular protocol (unless otherwise stated) consists of daily i.p. injections of 1 ml of 0.85% NaCl solution or 1 ml of 50 mM of AMP, ADP, or ATP in 0.85% NaCl (from stock solutions adjusted to pH 6.2) starting one day after tumor inoculation and given for ten consecutive days.
Injections are administered with 30 gauge needles and the mice are lightly anesthetized with ether. The mice are weighed before the start of treatment and once a week during and after treatment. After the tumors become palpable, tumor sizes are determined every three days. The animals are sacrificed, tumors are excised and weighed before they reach 10% of the animals' weight.
The growth inhibitory properties of adenine nucleotides against CT26 murine colon carcinoma, which are inoculated s.c. in the hind footpad of CB6F1 mice, are illustrated in Table 1 hereinbelow. […] No significant differences between males and females are observed either in the rate of tumor growth or in the tumor's response to adenine nucleotides treatment.

[4] = experiment 3, 12 M per group, 0.5 × 10^6 cells, day 13, 1 ml of 50 mM i.p. daily
[5] = experiment 4, 11 F per group, 0.5 × 10^6 cells, day 14, 1 ml of 50 mM i.p. daily
[6] = experiment 5, 12 F per group, 0.5 × 10^5 cells, day 16, 1 ml of 50 mM i.p. daily
[7] = experiment 6, 10 F per group, 0.5 × 10^5 cells, day 18, 1 ml of 50 mM i.p. daily (Ap4A 10 mM)
[8] = experiment 7, 10 F per group, 0.1 × 10^5 cells, day 22, 1 ml of 50 mM i.p. daily
[9] = experiment 7, 10 F per group, 0.1 × 10^5 cells, day 22, 1 ml of 50 mM i.p. daily, included one complete cure
[10] = experiment 1, 10 F per group, 0.5 × 10^6 cells, day 15, 1 ml of 25 mM i.p. daily
[11] = experiment 2, 10 M per group, 0.5 × 10^6 cells, day 15, 1 ml of 25 mM i.p. daily

Row | SMILES | Inhibition of tumor growth, schedule ending before inoculation [1] | Anticancer activities against established footpad CT26 colon adenocarcinoma [1] | Deaths before stated day after tumor inoculation [1] | Inhibition of growth of palpable CT26 tumors (in words) [1] | Increase in RBC ATP pools after in vitro treatment of whole mouse blood (in words) (RBC ATP pools) | RBC ATP pools (after 30 min incubations in heparinized mouse blood) (RBC ATP pools) [µM] | Arrested tumors/implanted tumors (CT26 tumors [2]) | Effectiveness of concentrations lower than 50 mM against CT26 footpad tumors (CT26 tumors [3]) | Tumor diameter (CT26 tumors [3]; [4]) [cm] | Tumor weight (CT26 tumors [3]; [4]) [g] | Tumor diameter (CT26 tumors [3]; [5]) [cm] | Tumor weight (CT26 tumors [3]; [5]) [g] | Tumor diameter (CT26 tumors [3]; [6]) [cm] | Tumor weight (CT26 tumors [3]; [6]) [g] | Tumor diameter (CT26 tumors [3]; [7]) [cm] | Tumor weight (CT26 tumors [3]; [7]) [g] | Tumor diameter (CT26 tumors [3]; [8]) [cm] | Tumor weight (CT26 tumors [3]; [9]) [g] | Most effective pH of the i.p. solution for inhibition of tumor growth (CT26 tumors [3]) | Effect of delaying start of treatment on tumor growth inhibition (CT26 tumors [3]) | also measured
1 | Nc1ncnc2c1ncn2[C@@H]1O[C@H](COP(=O)(O)O)[C@@H](O)[C@H]1O [AMP, adenosine 5'-monophosphate] | No inhibition of tumor growth | exhibit significant anticancer activities | No deaths occurred before day 22 | significantly inhibit the growth of this fast-growing tumor | marginal increases in RBC ATP pools | 0.73 ± 0.10 | 2/10 | as effective | 1.2 ± 0.2 | 0.65 ± 0.21 | 1.0 ± 0.3 | 0.88 ± 0.31 | 0.6 ± 0.2 | 0.41 ± 0.18 | 0.8 ± 0.2 | 0.56 ± 0.21 | 0.9 ± 0.5 | 0.51 ± 0.28 | 5.5-6.2 | without any significant effects on the magnitude of tumor growth inhibition | Inhibition of tumor growth relative to ATP ([1]; treatment initiated one day after tumor inoculation): as effective as ATP in inhibiting tumor growth
2 | Nc1ncnc2c1ncn2[C@@H]1O[C@H](COP(=O)(O)OP(=O)(O)OP(=O)(O)O)[C@@H](O)[C@H]1O [ATP, adenosine 5'-triphosphate] | No inhibition of tumor growth | exhibit significant anticancer activities | No deaths occurred before day 22 | significantly inhibit the growth of this fast-growing tumor | marginal increases in RBC ATP pools | 0.76 ± 0.05 | 4/10 | as effective | 1.2 ± 0.2 | 0.70 ± 0.18 | 1.0 ± 0.2 | 0.84 ± 0.23 | 0.5 ± 0.1 | 0.38 ± 0.10 | 0.8 ± 0.1 | 0.51 ± 0.18 | 0.9 ± 0.5 | 0.68 ± 0.36 | 5.5-6.2 | without any significant effects on the magnitude of tumor growth inhibition | Inhibition of tumor growth, palpable tumors, relative to AMP ([1]; applied to palpable tumors (FIG. 2)): more pronounced than that obtained with AMP; Tumor diameter (CT26 tumors [3]; [10]): 1.3 ± 0.2 cm; Tumor weight (CT26 tumors [3]; [10]): 1.34 ± 0.33 g; Inhibition of tumor growth (% of saline-treated) (CT26 tumors [3]; experiment 1, 10 F per group, 0.5 × 10^6 cells, day 15): 31%; Tumor diameter (CT26 tumors [3]; [11]): 1.4 ± 0.2 cm; Tumor weight (CT26 tumors [3]; [11]): 1.30 ± 0.29 g; Inhibition of tumor growth (% of saline-treated) (CT26 tumors [3]; experiment 2, 10 M per group, 0.5 × 10^6 cells, day 15): 30%

From US5049372A, “Anticancer activities in a host by increasing blood and plasma adenosine 5'-triphosphate (ATP) levels” (priority 1988, dated 1991)
